In patent US7381705B2, “Inhibitors of hepatitis C virus” (The Administrators Of The Tulane Educational Fund, priority 2004, dated 2008):
Where two headings read alike, the source gives them in different places. Ends that are not written are not given here. Peptide text beside a SMILES is read from it.

System: HCV pseudotype (HIV core proteins, HCV E1 and E2 of strain H77)
Conditions: for Percent inhibition: 25 μM; for Inhibition of HCV pseudotype infectivity (in words): summary of Tables 7 and 8
[1] = HCV J4 1b E2 peptides at ~25 μM, Table 8, controls as in Table 7
[2] = HCV H77 1a E2 peptides at ~25 μM, Table 7, virus alone 448,123

Compound	Percent inhibition [%]	Luciferase units [1]	Luciferase units [2]	Inhibition of HCV pseudotype infectivity (in words)
CSCC[C@H](NC(=O)[C@H](Cc1c[nH]c2ccccc12)NC(=O)[C@@H](NC(=O)[C@H](CS)NC(=O)CNC(=O)[C@H](Cc1ccccc1)NC(=O)[C@H](Cc1c[nH]c2ccccc12)NC(=O)[C@H](CC(N)=O)NC(=O)CNC(=O)[C@H](CCC(N)=O)NC(=O)[C@@H]1CCCN1C(=O)[C@@H]1CCCN1C(=O)[C@H](CCCNC(=N)N)NC(=O)[C@@H](NC(=O)[C@H](CC(N)=O)NC(=O)[C@@H](N)CC(N)=O)[C@@H](C)O)[C@@H](C)O)C(=O)N[C@@H](CC(N)=O)C(=O)N[C@@H](CO)C(=O)O [compound 99, NNTRPPQGNWFGCTWMNS]	75.2	111,043 luciferase units (lumens)		
CC[C@H](C)[C@H](NC(=O)[C@H](CC(N)=O)NC(=O)[C@H](CS)NC(=O)[C@@H]1CCCN1)C(=O)NCC(=O)NCC(=O)N[C@H](C(=O)NCC(=O)N[C@@H](CC(N)=O)C(=O)N[C@@H](CCCNC(=N)N)C(=O)N[C@H](C(=O)N[C@@H](CC(C)C)C(=O)N[C@H](C(=O)N[C@@H](CS)C(=O)N1CCC[C@H]1C(=O)N[C@H](C(=O)N[C@@H](CC(=O)O)C(=O)N[C@@H](CS)C(=O)O)[C@@H](C)O)[C@@H](C)CC)[C@@H](C)O)C(C)C [compound 102, PCNIGGVGNRTLICPTDC] (H-PCNIGGVGNRTLICPTDC-OH; N-terminus and C-terminus assumed)	15.8	377,216 luciferase units (lumens)		
CSCC[C@H](N)C(=O)N[C@@H](Cc1ccc(O)cc1)C(=O)N[C@H](C(=O)NCC(=O)NCC(=O)N[C@H](C(=O)N[C@@H](CCC(=O)O)C(=O)N[C@@H](Cc1c[nH]cn1)C(=O)N[C@@H](CCCNC(=N)N)C(=O)N[C@@H](CC(C)C)C(=O)N[C@@H](CC(N)=O)C(=O)N[C@@H](C)C(=O)N[C@@H](C)C(=O)N[C@@H](CS)C(=O)N[C@@H](CC(N)=O)C(=O)N[C@@H](Cc1c[nH]c2ccccc12)C(=O)N[C@H](C(=O)N[C@@H](CCCNC(=N)N)C(=O)O)[C@@H](C)O)C(C)C)C(C)C [compound 110, MYVGGVEHRLNAACNWTR]	−34.5	602,506 luciferase units (lumens)		
CC(C)C[C@H](NC(=O)[C@H](CCC(=O)O)NC(=O)[C@H](CO)NC(=O)[C@H](CCCNC(=N)N)NC(=O)[C@H](CC(=O)O)NC(=O)[C@H](CCCNC(=N)N)NC(=O)[C@H](CC(=O)O)NC(=O)[C@H](CCC(=O)O)NC(=O)[C@H](CC(C)C)NC(=O)[C@H](CC(N)=O)NC(=O)[C@H](CS)NC(=O)[C@H](CCCNC(=N)N)NC(=O)[C@H](CCC(=O)O)NC(=O)CNC(=O)[C@H](CCCNC(=N)N)NC(=O)[C@@H](NC(=O)[C@H](Cc1c[nH]c2ccccc12)NC(=O)[C@@H](N)CC(N)=O)[C@@H](C)O)C(=O)O [compound 112, NWTRGERCNLEDRDRSEL]	−17.8	527,950 luciferase units (lumens)		
CC(C)C[C@H](NC(=O)[C@H](CC(C)C)NC(=O)[C@H](CC(C)C)NC(=O)[C@@H]1CCCN1C(=O)[C@H](CO)NC(=O)[C@H](CC(C)C)NC(=O)[C@H](CCC(=O)O)NC(=O)[C@H](CO)NC(=O)[C@H](CCCNC(=N)N)NC(=O)[C@H](CC(=O)O)NC(=O)[C@H](CCCNC(=N)N)NC(=O)[C@H](CC(=O)O)NC(=O)[C@H](CCC(=O)O)NC(=O)[C@H](CC(C)C)NC(=O)[C@H](CC(N)=O)NC(=O)[C@@H](N)CS)C(=O)N[C@@H](CO)C(=O)N[C@H](C(=O)O)[C@@H](C)O [compound 113, CNLEDRDRSELSPLLLST]	−27.3	570,553 luciferase units (lumens)		
CC[C@H](C)[C@H](NC(=O)[C@H](CCC(N)=O)NC(=O)[C@H](Cc1c[nH]c2ccccc12)NC(=O)[C@H](CCC(=O)O)NC(=O)[C@@H](NC(=O)[C@@H](NC(=O)[C@H](CO)NC(=O)[C@H](CC(C)C)NC(=O)[C@H](CC(C)C)NC(=O)[C@H](CC(C)C)NC(=O)[C@@H]1CCCN1C(=O)[C@H](CO)NC(=O)[C@H](CC(C)C)NC(=O)[C@H](CCC(=O)O)NC(=O)[C@H](CO)NC(=O)[C@@H](N)CCCNC(=N)N)[C@@H](C)O)[C@@H](C)O)C(=O)N[C@@H](CC(C)C)C(=O)N1CCC[C@H]1C(=O)O [compound 114, RSELSPLLLSTTEWQILP]	39.7	270,190 luciferase units (lumens)		
AFVSFAIKWEYILLLFLL [compound 119, AFVSFAIKWEYILLLFLL]	84.6	69,220 luciferase units (lumens)		
AGVDAETHVTGGSAGRTT [peptide 1, AGVDAETHVTGGSAGRTT]	44.1		250,376 luciferase units (lumens)	
AGVDGETHTTGRVAGHTT [compound 54, AGVDGETHTTGRVAGHTT]	17.9	372,393 luciferase units (lumens)		
AKQNIQLINTNGSWHINS [peptide 5, AKQNIQLINTNGSWHINS]	89.3		48,000 luciferase units (lumens)	inhibitory
ARVCACLWMMLLIAQAEA [compound 121]	24.5	338,200 luciferase units (lumens)		
ARVCSCLWMMLLISQAEA [compound 49]	31.4		307,310 luciferase units (lumens)	
CDLEDRDRSELSPLLLST [compound 38, CDLEDRDRSELSPLLLST]	23.0		345,110 luciferase units (lumens)	
DTDVFVLNNTRPPLGNWF [compound 21, DTDVFVLNNTRPPLGNWF]	45.9		242,223 luciferase units (lumens)	
DWFAQGWGPITYTKPNSS [compound 89, DWFAQGWGPITYTKPNSS]	−0.3	449,293 luciferase units (lumens)		
DYPYRLWHYPCTINYTIF [compound 32, DYPYRLWHYPCTINYTIF]	81.0		85,086 luciferase units (lumens)	inhibitory
DYPYRLWHYPCTLNFSIF [compound 108, DYPYRLWHYPCTLNFSIF]	90.9	40,853 luciferase units (lumens)		inhibitory
FYAHKFNSSGCPERMASC [compound 86]	11.2	398,110 luciferase units (lumens)		
FYQHKFNSSGCPERLASC [compound 9]	−11.8		501,126 luciferase units (lumens)	
GHTTSGFTSLFSSGASQK [compound 81, GHTTSGFTSLFSSGASQK]	−7.3	480,623 luciferase units (lumens)		
GNNTLLCPTDCFRKHPEA [compound 27]	−28.4		575,206 luciferase units (lumens)	

Compound	Percent inhibition [%]	Luciferase units [1]	Luciferase units [2]	Inhibition of HCV pseudotype infectivity (in words)
GNRILICPTDCFRKHPEA [compound 103]	31.8	305,690 luciferase units (lumens)		
GNWFGCTWMNSTGFTKVC [compound 23]	17.9		367,916 luciferase units (lumens)	
GPISYANGSGLDERPYCW [compound 13, GPISYANGSGLDERPYCW]	31.1		313,323 luciferase units (lumens)	
GRTTAGLVGLLTPGAKQN [peptide 3, GRTTAGLVGLLTPGAKQN]	0.05		447,906 luciferase units (lumens)	
GSGLDERPYCWHYPPRPC [compound 14]	37.6		279,626 luciferase units (lumens)	
HINSTALNCNESLNTGWL [compound 7, HINSTALNCNESLNTGWL]	14.9		381,340 luciferase units (lumens)	
HPEATYSRCGSGPWITPR [compound 29, HPEATYSRCGSGPWITPR]	33.6		297,353 luciferase units (lumens)	
HPEATYTKCGSGPWLTPR [compound 105, HPEATYTKCGSGPWLTPR]	−23.2	552,170 luciferase units (lumens)		
HRLEAACNWTRGERCDLE [compound 36]	−19.5		535,016 luciferase units (lumens)	
HRLNAACNWTRGERCNLE [compound 111]	−39.2	632,613 luciferase units (lumens)		
HVTGGSAGRTTAGLVGLL [peptide 2, HVTGGSAGRTTAGLVGLL]	0.2		447,336 luciferase units (lumens)	
HYPCTINYTIFKVRMYVG [compound 33, HYPCTINYTIFKVRMYVG]	95.0		22,406 luciferase units (lumens)	inhibitory
HYPCTLNFSIFKVRMYVG [compound 109, HYPCTLNFSIFKVRMYVG]	79.4	96,893 luciferase units (lumens)		inhibitory
INTNGSWHINSTALNCNE [peptide 6, INTNGSWHINSTALNCNE]	−12.3		503,446 luciferase units (lumens)	
ITPRCMVDYPYRLWHYPC [compound 31]	6.4		419,263 luciferase units (lumens)	
KCGSGPWLTPRCLVDYPY [compound 106]	60.4	193,533 luciferase units (lumens)		
KWEYVVLLFLLLADARVC [compound 47, KWEYVVLLFLLLADARVC]	56.4		195,320 luciferase units (lumens)	
LASCRRLTDFAQGWGPIS [compound 11, LASCRRLTDFAQGWGPIS]	19.6		360,410 luciferase units (lumens)	
LFLLLADARVCACLWMML [compound 120]	−3.4	463,243 luciferase units (lumens)		
LFLLLADARVCSCLWMML [compound 48]	35.1		290,786 luciferase units (lumens)	
LLSTTEWQILPCAFTTLP [compound 115, LLSTTEWQILPCAFTTLP]	−6.2	475,713 luciferase units (lumens)		
